From the NIST ThermoML archive (doi:10.1021/je0602519)
Numbers after ± are expanded uncertainties.

Assay: xn = mol fraction of the nth substance listed
Settings: 101 kPa, Liquid; for speed of sound: Frequency=2 MHz, Linear variable-path acoustic interferometer; for mass density: Pycnometric method

CCCCCCCCO [octan-1-ol] + Cc1ccccc1
Settings | mass density, 303.15 K [kg/m3] | mass density, 313.15 K [kg/m3] | speed of sound, 303.15 K [m/s] | speed of sound, 313.15 K [m/s] | viscosity, 303.15 K [mPa·s] | viscosity, 313.15 K [mPa·s]
x2 = 0 | 818.38 ± 0.29 | 811.05 ± 0.3 | 1334 ± 3 | 1304 ± 3 | 6.433 ± 0.26 | 4.603 ± 0.2
x2 = 0.0495 | 819.62 ± 0.29 | 812.14 ± 0.3 | 1329 ± 3 | 1300 ± 3 | 5.63 ± 0.24 | 4.13 ± 0.18
x2 = 0.1104 | 821.19 ± 0.29 | 813.56 ± 0.31 | 1325 ± 3 | 1293 ± 3 | 4.775 ± 0.21 | 3.645 ± 0.16
x2 = 0.1513 | 822.25 ± 0.29 | 814.55 ± 0.31 | 1321 ± 3 | 1287 ± 3 | 4.281 ± 0.19 | 3.261 ± 0.15
x2 = 0.1999 | 823.55 ± 0.3 | 815.73 ± 0.31 | 1316 ± 3 | 1282 ± 3 | 3.788 ± 0.17 | 2.832 ± 0.13
x2 = 0.2517 | 824.98 ± 0.3 | 817.04 ± 0.31 | 1310 ± 3 | 1274 ± 3 | 3.28 ± 0.15 | 2.545 ± 0.12
x2 = 0.2997 | 826.34 ± 0.3 | 818.29 ± 0.31 | 1304 ± 3 | 1268 ± 2 | 2.952 ± 0.13 | 2.218 ± 0.1
x2 = 0.356 | 828.02 ± 0.3 | 819.85 ± 0.31 | 1297 ± 3 | 1262 ± 2 | 2.504 ± 0.11 | 1.944 ± 0.09
x2 = 0.3998 | 829.32 ± 0.3 | 821.03 ± 0.31 | 1291 ± 3 | 1255 ± 2 | 2.229 ± 0.1 | 1.715 ± 0.081
x2 = 0.4506 | 830.99 ± 0.3 | 822.56 ± 0.31 | 1286 ± 3 | 1250 ± 2 | 1.974 ± 0.091 | 1.518 ± 0.072
x2 = 0.5001 | 832.63 ± 0.3 | 824.08 ± 0.31 | 1281 ± 3 | 1242 ± 2 | 1.758 ± 0.082 | 1.37 ± 0.066
x2 = 0.5513 | 834.46 ± 0.3 | 825.77 ± 0.31 | 1276 ± 3 | 1238 ± 2 | 1.541 ± 0.073 | 1.175 ± 0.057
x2 = 0.6014 | 836.31 ± 0.3 | 827.51 ± 0.31 | 1272 ± 3 | 1234 ± 2 | 1.35 ± 0.065 | 1.084 ± 0.053
x2 = 0.6495 | 838.22 ± 0.3 | 829.3 ± 0.31 | 1270 ± 3 | 1231 ± 2 | 1.214 ± 0.059 | 0.935 ± 0.047
x2 = 0.6997 | 840.36 ± 0.3 | 831.29 ± 0.31 | 1268 ± 3 | 1228 ± 2 | 1.065 ± 0.052 | 0.866 ± 0.044
x2 = 0.7569 | 842.9 ± 0.3 | 833.69 ± 0.31 | 1267 ± 3 | 1228 ± 2 | 0.931 ± 0.047 | 0.754 ± 0.039
x2 = 0.8012 | 845.02 ± 0.3 | 835.74 ± 0.31 | 1268 ± 3 | 1229 ± 2 | 0.819 ± 0.042 | 0.703 ± 0.037
x2 = 0.8527 | 847.7 ± 0.3 | 838.28 ± 0.31 | 1269 ± 3 | 1232 ± 2 | 0.733 ± 0.038 | 0.636 ± 0.034
x2 = 0.9 | 850.32 ± 0.31 | 840.85 ± 0.32 | 1273 ± 3 | 1236 ± 2 | 0.646 ± 0.034 | 0.558 ± 0.03
x2 = 0.954 | 853.6 ± 0.31 | 844 ± 0.32 | 1280 ± 3 | 1245 ± 2 | 0.576 ± 0.031 | 0.526 ± 0.029

CCCCCCCCCCO [decan-1-ol] + Cc1ccccc1
Settings | mass density, 303.15 K [kg/m3] | mass density, 313.15 K [kg/m3] | speed of sound, 303.15 K [m/s] | speed of sound, 313.15 K [m/s] | viscosity, 303.15 K [mPa·s] | viscosity, 313.15 K [mPa·s]
x2 = 0 | 822.87 ± 0.29 | 815.97 ± 0.31 | 1366 ± 3 | 1334 ± 3 | 9.716 ± 0.37 | 6.82 ± 0.28
x2 = 0.0507 | 823.76 ± 0.3 | 816.74 ± 0.31 | 1361 ± 3 | 1327 ± 3 | 8.474 ± 0.33 | 6.06 ± 0.26
x2 = 0.1015 | 824.73 ± 0.3 | 817.58 ± 0.31 | 1355 ± 3 | 1320 ± 3 | 7.424 ± 0.3 | 5.343 ± 0.23
x2 = 0.1473 | 825.62 ± 0.3 | 818.34 ± 0.31 | 1349 ± 3 | 1314 ± 3 | 6.635 ± 0.27 | 4.771 ± 0.21
x2 = 0.2091 | 826.88 ± 0.3 | 819.45 ± 0.31 | 1340 ± 3 | 1305 ± 3 | 5.658 ± 0.24 | 4.059 ± 0.18
x2 = 0.2577 | 827.9 ± 0.3 | 820.38 ± 0.31 | 1333 ± 3 | 1297 ± 3 | 4.962 ± 0.22 | 3.552 ± 0.16
x2 = 0.3006 | 828.84 ± 0.3 | 821.2 ± 0.3 | 1327 ± 3 | 1292 ± 3 | 4.458 ± 0.2 | 3.112 ± 0.14
x2 = 0.3496 | 829.95 ± 0.3 | 822.24 ± 0.31 | 1318 ± 3 | 1283 ± 3 | 3.848 ± 0.17 | 2.71 ± 0.12
x2 = 0.4028 | 831.22 ± 0.3 | 823.38 ± 0.31 | 1311 ± 3 | 1275 ± 3 | 3.32 ± 0.15 | 2.263 ± 0.11
x2 = 0.4516 | 832.48 ± 0.3 | 824.49 ± 0.31 | 1303 ± 3 | 1268 ± 2 | 2.843 ± 0.13 | 1.903 ± 0.09
x2 = 0.4989 | 833.77 ± 0.3 | 825.69 ± 0.31 | 1295 ± 3 | 1261 ± 2 | 2.499 ± 0.11 | 1.678 ± 0.08
x2 = 0.5497 | 835.29 ± 0.3 | 827.06 ± 0.31 | 1290 ± 3 | 1255 ± 2 | 2.152 ± 0.1 | 1.47 ± 0.071
x2 = 0.6009 | 836.92 ± 0.3 | 828.57 ± 0.31 | 1285 ± 3 | 1249 ± 2 | 1.883 ± 0.088 | 1.305 ± 0.064
x2 = 0.6498 | 838.61 ± 0.3 | 830.11 ± 0.31 | 1280 ± 3 | 1245 ± 2 | 1.594 ± 0.075 | 1.162 ± 0.057
x2 = 0.7065 | 840.8 ± 0.3 | 832.12 ± 0.31 | 1275 ± 3 | 1240 ± 2 | 1.414 ± 0.068 | 0.994 ± 0.05
x2 = 0.7524 | 842.7 ± 0.3 | 833.86 ± 0.31 | 1274 ± 2 | 1239 ± 2 | 1.15 ± 0.056 | 0.905 ± 0.046
x2 = 0.8069 | 845.15 ± 0.3 | 836.21 ± 0.31 | 1273 ± 2 | 1239 ± 2 | 1.021 ± 0.05 | 0.79 ± 0.041
x2 = 0.8472 | 847.18 ± 0.3 | 838.04 ± 0.31 | 1274 ± 2 | 1240 ± 2 | 0.887 ± 0.045 | 0.732 ± 0.038
x2 = 0.9063 | 850.54 ± 0.31 | 841.18 ± 0.32 | 1278 ± 3 | 1243 ± 2 | 0.75 ± 0.039 | 0.64 ± 0.034
x2 = 0.9489 | 853.12 ± 0.31 | 843.58 ± 0.32 | 1282 ± 3 | 1248 ± 2 | 0.599 ± 0.032 | 0.565 ± 0.031

CCCCCCCO [heptan-1-ol] + Cc1ccccc1
Settings | mass density, 303.15 K [kg/m3] | mass density, 313.15 K [kg/m3] | speed of sound, 303.15 K [m/s] | speed of sound, 313.15 K [m/s] | viscosity, 303.15 K [mPa·s] | viscosity, 313.15 K [mPa·s]
x2 = 0 | 814.89 ± 0.29 | 807.68 ± 0.3 | 1313 ± 3 | 1279 ± 3 | 5.048 ± 0.22 | 3.712 ± 0.17
x2 = 0.0525 | 816.52 ± 0.29 | 809.17 ± 0.3 | 1310 ± 3 | 1274 ± 3 | 4.404 ± 0.19 | 3.362 ± 0.15
x2 = 0.1014 | 818.06 ± 0.29 | 810.59 ± 0.3 | 1307 ± 3 | 1271 ± 3 | 3.859 ± 0.17 | 3.074 ± 0.14
x2 = 0.1518 | 819.67 ± 0.29 | 812.07 ± 0.3 | 1304 ± 3 | 1267 ± 3 | 3.4 ± 0.15 | 2.77 ± 0.12
x2 = 0.1859 | 820.78 ± 0.29 | 813.13 ± 0.31 | 1301 ± 3 | 1263 ± 2 | 3.154 ± 0.14 | 2.55 ± 0.12
x2 = 0.2489 | 822.84 ± 0.3 | 815.02 ± 0.31 | 1296 ± 3 | 1258 ± 3 | 2.645 ± 0.12 | 2.226 ± 0.1
x2 = 0.3011 | 824.61 ± 0.3 | 816.69 ± 0.31 | 1291 ± 3 | 1251 ± 2 | 2.314 ± 0.11 | 1.986 ± 0.092
x2 = 0.3504 | 826.34 ± 0.3 | 818.24 ± 0.31 | 1286 ± 3 | 1247 ± 2 | 2.042 ± 0.094 | 1.77 ± 0.082
x2 = 0.4006 | 828.07 ± 0.3 | 819.87 ± 0.31 | 1282 ± 3 | 1242 ± 2 | 1.796 ± 0.084 | 1.583 ± 0.074
x2 = 0.4494 | 829.88 ± 0.3 | 821.57 ± 0.31 | 1278 ± 3 | 1237 ± 2 | 1.594 ± 0.075 | 1.436 ± 0.068
x2 = 0.5003 | 831.83 ± 0.3 | 823.35 ± 0.31 | 1274 ± 3 | 1233 ± 2 | 1.399 ± 0.067 | 1.271 ± 0.061
x2 = 0.5486 | 833.72 ± 0.3 | 825.14 ± 0.31 | 1271 ± 3 | 1230 ± 2 | 1.25 ± 0.06 | 1.144 ± 0.056
x2 = 0.5903 | 835.44 ± 0.3 | 826.72 ± 0.31 | 1269 ± 3 | 1227 ± 2 | 1.113 ± 0.054 | 1.069 ± 0.052
x2 = 0.6493 | 837.95 ± 0.3 | 829.09 ± 0.31 | 1266 ± 3 | 1226 ± 2 | 0.982 ± 0.049 | 0.965 ± 0.048
x2 = 0.7011 | 840.28 ± 0.3 | 831.32 ± 0.31 | 1266 ± 3 | 1225 ± 2 | 0.888 ± 0.045 | 0.84 ± 0.043
x2 = 0.752 | 842.69 ± 0.3 | 833.57 ± 0.31 | 1267 ± 3 | 1226 ± 2 | 0.776 ± 0.04 | 0.772 ± 0.04
x2 = 0.8041 | 845.27 ± 0.3 | 836.02 ± 0.31 | 1268 ± 3 | 1228 ± 2 | 0.673 ± 0.035 | 0.682 ± 0.036
x2 = 0.8495 | 847.69 ± 0.3 | 838.32 ± 0.31 | 1272 ± 3 | 1232 ± 2 | 0.635 ± 0.034 | 0.639 ± 0.034
x2 = 0.9009 | 850.55 ± 0.31 | 841.07 ± 0.32 | 1276 ± 3 | 1239 ± 2 | 0.588 ± 0.032 | 0.573 ± 0.031
x2 = 0.9487 | 853.39 ± 0.31 | 843.85 ± 0.32 | 1282 ± 3 | 1245 ± 2 | 0.546 ± 0.03 | 0.528 ± 0.029
